Reference: ChEMBL document CHEMBL1201862, “PubChem BioAssay data set” (2004)
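48-hour exposure; five concentrations; linearly interpolated endpoints. Here, GI50 denotes the concentration required for 50% inhibition of growth.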 Activity calls are given as the source filed them. Cut-off read from the data, not from the text of the source: active = GI50 up to about 1.1 µM and inactive = higher.

What was measured:
Assay in all cases: NCI-60 cell line screen, 48 h
[1] = system: CAKI-1
[2] = system: CCRF-CEM
[3] = system: COLO 205
[4] = system: HOP-92
[5] = system: K562
[6] = system: LOX IMVI
[7] = system: NCI-H23
[8] = system: OVCAR-4
[9] = system: RXF 393
[10] = system: SF-268
[11] = system: SK-MEL-5
[12] = system: SN12C
[13] = system: SNB-19
[14] = system: SW-620
[15] = system: U-251
[16] = system: UACC-257
[17] = system: SR

Measured: GI50

COc1ccc(NC(=O)c2cc(OC)c(OC)c(OC)c2)cc1
inactive: [1] 66.4 µM | [2] 37.8 µM | [3] 26.5 µM | [4] > 100 µM | [5] 24.7 µM | [6] 60.3 µM | [7] 40.7 µM | [8] > 100 µM | [9] 31.3 µM | [10] > 56.4 µM | [11] 28.2 µM | [12] 55 µM | [13] > 100 µM | [14] 39.8 µM | [15] 39.6 µM | [16] 42.8 µM

COc1cc2c(cc1OC)c1c(OC)c(OC)cc3c1c1c2sc(=S)n1CC3
inactive: [1] > 100 µM | [2] 24.5 µM | [3] > 100 µM | [4] > 100 µM | [5] 21.6 µM | [6] 31.5 µM | [7] 44.4 µM | [8] 55 µM | [9] 89.1 µM | [10] 28.7 µM | [11] 41.5 µM | [12] 64.6 µM | [13] 67.1 µM | [14] 51.1 µM | [15] 66.5 µM | [16] > 100 µM

COc1ccc(C(=O)/C(=N/Nc2ccccc2)c2ccc(OC)cc2)cc1
inactive: [1] > 100 µM | [3] > 100 µM | [5] 20.4 µM | [7] > 100 µM | [8] > 100 µM | [9] 31.9 µM | [11] > 100 µM | [12] > 100 µM | [13] > 100 µM | [14] > 100 µM | [15] > 100 µM | [16] > 100 µM

CC(=O)Oc1cc2c(cc1OC(C)=O)C1(C)CCC2(C)c2cc(OC(C)=O)c(OC(C)=O)cc21
inactive: [1] 8.55 µM | [2] 2.87 µM | [3] 51.4 µM | [4] 6.9 µM | [5] 5.6 µM | [6] 12.6 µM | [7] 43.2 µM | [8] 14.4 µM | [9] 40.7 µM | [10] 19.2 µM | [11] 22.6 µM | [12] 40.3 µM | [13] 4.75 µM | [14] 7.73 µM | [16] 11.3 µM

COc1ccc(/C=C2\CCC(C)(CN(C)C)C2=O)cc1OC (centres undefined)
inactive: [1] > 100 µM | [2] > 100 µM | [3] > 100 µM | [4] > 100 µM | [5] > 100 µM | [6] > 100 µM | [7] > 100 µM | [8] > 100 µM | [9] > 100 µM | [10] > 100 µM | [11] > 100 µM | [12] > 100 µM | [13] > 100 µM | [14] > 100 µM | [15] > 100 µM | [16] > 100 µM

O=C1CCCC1NC(=O)C(F)(F)F (centres undefined)
inactive: [1] > 100 µM | [2] > 100 µM | [4] > 100 µM | [5] > 100 µM | [7] > 100 µM | [8] > 100 µM | [9] > 100 µM | [10] > 100 µM | [11] > 100 µM | [12] > 100 µM | [13] > 100 µM | [14] > 100 µM | [15] > 100 µM | [16] > 100 µM

OC(c1ccccc1)(c1ccccc1)c1cccnc1
inactive: [1] > 100 µM | [2] > 100 µM | [3] > 100 µM | [5] > 100 µM | [6] > 100 µM | [7] > 100 µM | [8] > 100 µM | [10] > 100 µM | [11] > 100 µM | [12] > 100 µM | [13] > 100 µM | [14] > 100 µM | [15] > 100 µM | [16] > 100 µM

O=[N+]([O-])C(/C=N/Nc1ccccc1)/C=N/Nc1ccccc1
inactive: [1] > 100 µM | [2] > 100 µM | [3] > 100 µM | [4] > 100 µM | [5] > 100 µM | [6] > 100 µM | [7] > 100 µM | [8] > 100 µM | [9] > 100 µM | [10] > 100 µM | [11] > 100 µM | [12] > 100 µM | [13] > 100 µM | [14] > 100 µM | [15] > 100 µM | [16] > 100 µM

CC(C)N1CN(C(C(=O)N[C@@H]2C(=O)N3C2SC(C)(C)C3C(=O)O)c2ccccc2)CSC1=S (some centres undefined)
inactive: [1] > 100 µM | [2] > 100 µM | [3] 46.9 µM | [4] > 100 µM | [5] 30.6 µM | [6] 83.9 µM | [7] > 100 µM | [8] > 100 µM | [10] > 100 µM | [11] > 100 µM | [12] > 100 µM | [13] > 100 µM | [15] > 100 µM | [16] > 100 µM

CN1CCN(CN2C(=O)C3C4C=CC(C3C2=O)C2C3C(=O)N(CN5CCN(C)CC5)C(=O)C3C42)CC1 (centres undefined)
inactive: [2] 29.2 µM | [3] 17.5 µM | [5] 26.9 µM | [6] 17.9 µM | [7] 21.2 µM | [8] 21.3 µM | [9] 22.9 µM | [10] 25.3 µM | [11] 17 µM | [12] 20.3 µM | [17] 16.4 µM | [14] 19 µM | [15] 20.8 µM

C/C(O[Si](C(C)C)(C(C)C)C(C)C)=C(\C)C(=O)N(C)c1ccccc1Cl
inactive: [1] > 100 µM | [3] > 100 µM | [4] > 100 µM | [6] > 100 µM | [7] > 100 µM | [8] > 100 µM | [9] > 100 µM | [10] > 100 µM | [11] > 100 µM | [12] > 100 µM | [13] > 100 µM | [14] > 100 µM | [15] > 100 µM | [16] > 100 µM

C[P+](C)(CC(F)(F)F)c1ccccc1
inactive: [2] > 100 µM | [3] > 100 µM | [5] > 100 µM | [6] > 100 µM | [7] > 100 µM | [9] > 100 µM | [11] > 100 µM | [12] > 100 µM | [13] > 100 µM | [17] > 100 µM | [14] > 100 µM | [15] > 100 µM | [16] > 100 µM

COc1ccc(C2C(Cl)C(=O)N2n2cnc3ccccc3c2=O)cc1OC (centres undefined)
inactive: [1] > 100 µM | [2] > 10 µM | [3] > 100 µM | [5] > 100 µM | [6] > 100 µM | [7] 42 µM | [8] > 100 µM | [9] 96.8 µM | [10] 85.7 µM | [11] > 100 µM | [12] > 100 µM | [13] 52.4 µM | [17] 38.7 µM | [14] > 100 µM | [15] > 100 µM | [16] 32 µM
